Source: patent US9233961B2, “Compounds and compositions for the treatment of parasitic diseases” (Novartis AG, priority 2013, dated 2016)
Like-named read-outs stand apart in the source and are kept apart here.

How the values were obtained:
[1] = tested on: Trypanosoma cruzi amastigotes (Tulahuen strain) cultured in 3T3 fibroblast cells; assay: Assay for proliferation of kinetoplastid parasite Trypanosoma cruzi; type: cell-based; conditions: 144 h, 6 day incubation
From the text: Assay for Proliferation of Kinetoplastid Parasite Trypanosoma cruzi.
Compounds of the invention can be assayed to measure their capacity to inhibit proliferation of kinetoplastid parasite Trypanosoma cruzi. The screening procedure is for identifying compounds with inhibitor activity against Trypanosoma cruzi amastigotes cultured in 3T3 fibroblast cells. The assay is done using the mammalian stage (amastigotes) of T. cruzi that replicates in the intracellular space of host cells. The host cells are initially infected with the culture-derived trypomastigotes that rapidly invade and then divide as amastigotes. The protocol uses the Tulahuen strain of T. cruzi that has been engineered to express the E. coli beta-galactosidase gene (Lac-Z) (Antimicr. Agents Chemoth. 40:2592, 1996). This allows for a colorimetric readout by using the substrate CPRG and an absorbance plate reader.
3T3 fibroblast cells are re-suspended in RPMI-1640 medium without phenol red medium supplemented with 10% FBS (heat inactivated), 100 μg/ml penicillin, and 100 μg/ml streptomycin. Forty μL of suspension (1,000 cells) is dispensed into 384-well plates and incubated overnight at 37° C. temperature and in atmosphere containing 5% CO2. The following day, 100 nL of compounds of the invention in DMSO are added to plate wells containing 3T3 cells. At the same time control compounds (benznidazole and nifurtimox) and DMSO are added to plates to serve as the positive and negative controls, respectively. After that, 10 μL of media containing 10,000 T. cruzi trypomastigotes are added to each plate well and plates are placed back into incubators. After 6 day incubation, 10 μL of reagent solution (0.6 mM CPRG, 0.6% NP-40 in PBS) is added to plates and incubated at room temperature for 2 hours. Absorbance is then measured on SpectraMax Gemini […] to determine relative number of T. cruzi cells present in each plate well. The percentage inhibition of 50%, EC50, is calculated for each compound. […] Typically, the EC50 is 10 μM or less.

[2] = tested on: L. donovani HU3 strain in mouse peritoneal macrophages; assay: Assay for proliferation of Leishmania parasites in mouse peritoneal macrophages; type: cell-based, Leishmania donovani; conditions: Leishmania donovani, Peritoneal macrophage
How it was run: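 EC50 derives from counting SYBR Green-stained parasite nuclei by high-content imaging after 5 days' compound exposure. Host cells were uninfected BALB/c peritoneal macrophages, infected for 24 h before dosing with spleen-derived L. donovani HU3 parasites from mice infected 9–11 weeks.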

[3] = tested on: Trypanosoma brucei Lister 427 strain bloodstream form; assay: Assay for proliferation of kinetoplastid parasite Trypanosoma brucei; type: cell-based
How it was run: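 Bloodstream-form T. brucei Lister 427 in HMI-9 medium was exposed to compound (DMSO vehicle) for 48 hours at 37° C, 5% CO2. Parasite growth was read as ATP by CellTiter-Glo luminescence, with EC50 calculated from percent inhibition.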

[4] = tested on: Leishmania donovani axenic amastigote parasites; assay: Leishmania donovani axenic amastigote proliferation assay; type: cell-based; conditions: read-out: L. donovani amastigotes EC50
How it was run: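 EC50 values come from CellTiter-Glo luminescence after 2-day compound exposure of axenic amastigotes (9600 per well) at 37 °C, 5% CO2. Medium: RPMI 1640, 20% heat-inactivated FBS, folic acid, adenosine, D-glucose, 25 mM MES, adjusted to pH 5.5.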

[5] = Tulahuen amastigotes in 3T3 fibroblast cells, read-out: T cruzi EC50
[6] = read-out: L. donavani Macrophage EC50
[7] = Lister 427 bloodstream form, 48 hours, read-out: T. brucei EC50
[8] = T. brucei Lister 427, 48 hours, Cell Titer Glo, read-out: EC50

Structure (SMILES) | EC50 [1, 5] [µM] | EC50 [2, 6] [µM] | EC50 [3, 7] [µM] | EC50 [3, 8] [µM] | EC50 ([4]; axenic amastigotes in vitro) [µM] | EC50 ([1]; TULAHUEN, T. cruzi in 3T3 fibroblast cells, CPRG absorbance, read-out: EC50) [µM] | EC50 ([2]; read-out: L. donavani Macrophage EC50 (μM)) [µM] | EC50 ([3]; 48 h, read-out: T. brucei EC50) [µM] | EC50 [4] [µM]
NC(=O)c1ccc(-c2cnc3nc(-c4cc(NC(=O)c5ccco5)ccc4Cl)[nH]c3c2)cc1 [Compound 19, N-{3-[6-(4-carbamoylphenyl)-1H-imidazo[4,5-b]pyridin-2-yl]-4-chlorophenyl}furan-2-carboxamide] | > 20 | > 50 | 0.0058 | 0.006 | 0.165 | – | – | – | –
COc1ccc(-c2cnc3nc(-c4cc(NC(=O)c5ccco5)ccc4Cl)[nH]c3c2)cn1 [Compound 29, N-{4-chloro-3-[6-(6-methoxypyridin-3-yl)-1H-imidazo [4,5-b]pyridin-2-yl]phenyl}furan-2-carboxamide] | 0.071 | 2.29 | 0.0235 | 0.024 | 0.234 | – | – | – | –
O=C(Nc1ccc(Cl)c(-c2nc3ncc(-c4ccc(OCc5ccccc5)cc4)cc3[nH]2)c1)c1ccco1 [Compound 47] | 0.104 | > 7.2 | 0.04 | – | 0.46 | – | – | – | –
O=C(Nc1ccc(Cl)c(-c2nc3ncc(-c4cccnc4)cc3[nH]2)c1)c1ccco1 [Compound 50] | 0.053 | 1.64 | 0.00262 | – | 0.134 | – | – | – | –
COCCOc1ccc(-c2cnc3nc(-c4cc(NC(=O)c5ccco5)ccc4Cl)[nH]c3c2)c(F)n1 [Compound 52] | 0.068 | > 14.5 | 0.036 | – | 0.188 | – | – | – | –
COC(=O)Nc1ccc(-c2cnc3nc(-c4cc(NC(=O)c5ccco5)ccc4Cl)[nH]c3c2)cc1 [Compound 58, methyl N-(4-{2-[2-chloro-5-(furan-2-amido)phenyl]-1H-imidazo[4,5-b]pyridin-6-yl}phenyl)carbamate] | 0.0193 | 0.284 | 0.0051 | 0.005 | 0.051 | – | – | – | –
CC(C)(C)OC(=O)N1CC=C(c2cnc3nc(-c4cc(NC(=O)c5ccco5)ccc4Cl)[nH]c3c2)CC1 [Compound 63] | 0.108 | 1.6 | 0.0217 | – | 0.56 | – | – | – | –
O=C(Nc1ccc(Cl)c(-c2nc3ncc(C4=CCNCC4)cc3[nH]2)c1)c1ccco1 [Compound 70] | 0.49 | 20.8 | 0.174 | – | 6 | – | – | – | –
Cc1cnc2nc(-c3cc(NC(=O)c4ccccn4)ccc3Cl)[nH]c2c1 [Compound 83] | 1.3 | 23.3 | 0.93 | – | 7 | – | – | – | –
Cc1cnc2nc(-c3cc(NC(=O)c4ccc(N5CCOCC5)cn4)ccc3Cl)[nH]c2c1 [Compound 84] | 2.3 | > 50 | 2.13 | – | 6.7 | – | – | – | –
Cc1cnc2nc(-c3cc(NC(=O)Cc4cccc(Cl)c4)ccc3Cl)[nH]c2c1 [Compound 85] | > 11.5 | 21.3 | 9.3 | – | > 25 | – | – | – | –
Cc1cnc2nc(-c3cc(NC(=O)c4ccc(Cl)o4)ccc3Cl)[nH]c2c1 [Compound 86] | 0.069 | 3.09 | 0.183 | – | 0.84 | – | – | – | –
Cc1cnc2nc(-c3cc(NC(=O)c4cccc(Cl)c4)ccc3Cl)[nH]c2c1 [Compound 89] | 0.175 | 9.2 | 0.26 | – | 3.7 | – | – | – | –
Cc1cnc2nc(-c3cc(Nc4cccnc4N4CCOCC4)ccc3Cl)[nH]c2c1 [Compound 264] | – | > 32.3 | 11.7 | – | > 25 | – | – | – | –
Cc1cnc2nc(-c3cc(Nc4nccc5c4CCN(Cc4ccccc4)C5)ccc3Cl)[nH]c2c1 [Compound 265] | – | 15.6 | 8.2 | – | > 25 | – | – | – | –
O=C(Nc1ccc(Cl)c(-c2nc3ncc(C(F)(F)F)cc3[nH]2)c1)C1CCCC1 [Compound 282] | – | 3.3 | 11.2 | – | 17.5 | – | – | – | –

Structure (SMILES) | EC50 [1, 5] [µM] | EC50 [2, 6] [µM] | EC50 [3, 7] [µM] | EC50 [3, 8] [µM] | EC50 ([4]; axenic amastigotes in vitro) [µM] | EC50 ([1]; TULAHUEN, T. cruzi in 3T3 fibroblast cells, CPRG absorbance, read-out: EC50) [µM] | EC50 ([2]; read-out: L. donavani Macrophage EC50 (μM)) [µM] | EC50 ([3]; 48 h, read-out: T. brucei EC50) [µM] | EC50 [4] [µM]
CN(C(=O)OC(C)(C)C)c1ccc(-c2cnc3nc(-c4cc(NC(=O)N5CCCC5)ccc4Cl)[nH]c3c2)cc1 [Compound 332, tert-butyl N-[4-(2-{2-chloro-5-[(pyrrolidin-1-yl)carbonylamino]phenyl}-1H-imidazo[4,5-b]pyridin-6-yl)phenyl]-N-methylcarbamate] | – | – | – | – | – | 0.006 | – | – | –
CNc1ccc(-c2cnc3nc(-c4cc(NC(=O)C5CCCC5)ccc4Cl)[nH]c3c2)cc1 [Compound 346] | – | 0.47 | 0.56 | – | 2.53 | – | – | – | –
CNc1ccc(-c2cnc3nc(-c4cc(NC(=O)c5cscn5)ccc4Cl)[nH]c3c2)cc1 [Compound 349] | – | 2.69 | 0.171 | – | 1.35 | – | – | – | –
CCOC(=O)Nc1ccc(Cl)c(-c2nc3ncc(-c4ccc5c(c4)CC(=O)N5)cc3[nH]2)c1 [Compound 378] | – | 3.3 | 0.02 | – | 0.69 | – | – | – | –
COC(=O)Nc1ccc(-c2cnc3nc(-c4cc(NC(=O)c5ccco5)ccc4Cl)oc3c2)cc1 [Compound 417] | – | – | 0.056 | – | 0.212 | – | 0.49 | – | –
Cc1cnc2nc(-c3cc(NC(=O)Cc4cccc(F)c4F)ccc3Cl)[nH]c2c1 [Example 78, N-(4-chloro-3-{6-methyl-1H-imidazo[4,5-b]pyridin-2-yl}phenyl)-2-(2,3-difluorophenyl)acetamide] | – | > 50 | > 6.6 | – | > 25 | – | – | – | –
Cc1cnc2nc(-c3cc(NC(=O)OCCF)ccc3Cl)[nH]c2c1 [Example 214, 2-Fluoroethyl N-(4-chloro-3-{6-methyl-1H-imidazo[4,5-b]pyridin-2-yl}phenyl)carbamate] | – | 27.5 | – | – | – | – | – | 2.25 | 8.4
Cc1cnc2nc(-c3cc(NC(=O)N4CCOCC4)ccc3Cl)[nH]c2c1 [Example 237, N-(4-chloro-3-{6-methyl-1H-imidazo[4,5-b]pyridin-2-yl}phenyl)morpholine-4-carboxamide] | – | > 50 | 8.7 | – | > 25 | – | – | – | –
Cc1cnc2nc(-c3cc(NC(=O)NC4CCC4)ccc3Cl)[nH]c2c1 [Example 247, 1-(4-Chloro-3-{6-methyl-1H-imidazo[4,5-b]pyridin-2-yl}phenyl)-3-cyclobutylurea] | – | 26.9 | 6.4 | – | > 25 | – | – | – | –
Cc1cnc2nc(-c3cc(NS(=O)(=O)Cc4ccccc4)ccc3Cl)[nH]c2c1 [Example 250, N-(4-chloro-3-{6-methyl-1H-imidazo[4,5-b]pyridin-2-yl}phenyl)-1-phenylmethanesulfonamide] | – | > 50 | > 25 | – | > 25 | – | – | – | –
Cc1cnc2nc(-c3cc(Nc4ccc(Cl)cc4)ccc3Cl)[nH]c2c1 [Example 256, 4-chloro-N-(4-chlorophenyl)-3-{6-methyl-1H-imidazo[4,5-b]pyridin-2-yl}aniline] | – | > 50 | > 18.1 | – | > 25 | – | – | – | –
Cc1cnc2nc(-c3cc(NCc4ccco4)ccc3Cl)[nH]c2c1 [Example 266, 4-chloro-N-(furan-2-ylmethyl)-3-{6-methyl-1H-imidazo[4,5-b]pyridin-2-yl}aniline] | – | > 40.5 | – | – | – | – | – | > 25 | > 25
N#Cc1cnc2nc(-c3cc(NC(=O)c4ccco4)ccc3Cl)[nH]c2c1 [Example 286, N-(4-chloro-3-{6-cyano-1H-imidazo[4,5-b]pyridin-2-yl}phenyl)furan-2-carboxamide] | – | 7.1 | 0.164 | – | 0.61 | – | – | – | –
CNc1ccc(-c2cnc3nc(-c4cc(NC(=O)c5cc(C)cs5)ccc4Cl)[nH]c3c2)cc1 [Example 345, N-(4-chloro-3-{6-[4-(methylamino)phenyl]-1H-imidazo[4,5-b]pyridin-2-yl}phenyl)-4-methylthiophene-2-carboxamide] | – | 1.35 | 0.277 | – | 1.97 | – | – | – | –
NCc1cnc2nc(-c3cc(NC(=O)c4ccco4)ccc3Cl)[nH]c2c1 [Example 352, N-{3-[6-(aminomethyl)-1H-imidazo[4,5-b]pyridin-2-yl]-4-chlorophenyl}furan-2-carboxamide] | – | 49.5 | 0.45 | – | 0.253 | – | – | – | –
